Laboratory results reported in patent publication US10272056B2, “Treatment for mitochondrial diseases” (The George Washington University a Congressionally …, priority 2015, dated 2019).

What was measured:
E17.5 neurons = assay: In vivo mitochondrial mass of E17.5 brains from treated pregnant dams; set-up: species or system mice; details: E12.5 pregnant dams, NaBt 1.2 g/Kg intraperitoneally vs PBS
From the text: FIG. 7A-7F show images from microscopy and graphs showing NaBt increases mitochondrial mass. (A) Live cell confocal microscopy of E17.5 hippocampal neurons; high magnification in inset; scale bar=5 (B) Quantitative analysis of the mitochondrial biomass in E17.5 neurons using an anti-CoxVα antibody; *p<0.001. (C) Live cell confocal microscopy of PC12-ND6 cells; high magnification in inset; scale bar=5 (D) Flow cytometric analysis of mitochondrial mass; *p<0.001. (E) Confocal microscopy of E17.5 brains from E12.5 pregnant dams treated with PBS (sham) or NaBt; scale bar=20 (F) Quantitative analysis of mitochondrial mass; *p<0.001.
Experimental paradigms. These are: 1) E17.5 differentiating hippocampal neurons expressing NeuroD6; 2) the PC12-NeuroD6 neuronal cell line recapitulating the early stages of differentiation; 3) E12.5 timed-pregnant dams treated intraperitoneally with NaBt (1.2 g/Kg) or PBS; and 4) cultured primary skin fibroblasts isolated from two MELAS patients and a healthy subject. Patient fibroblasts are the most suitable system to investigate the therapeutic potential of the butyrate derivatives (NaBt, TBN, and AN9) within the context of the patient's nuclear background and heteroplasmy, as MELAS animal models have not been generated due to polyploidy of the mt genome, heteroplasmic load, and influence of the nuclear background on MELAS phenotypic variability. […]

[1] = tested on: E17.5 hippocampal neurons; assay: NaBt dose-dependent acetylation of nuclear proteins in neurons; format: cell-based; details: E17.5 hippocampal neurons at 1DIV
From the text: FIG. 4A-4E are images from microscopy and graphs showing NaBt dose-dependent acetylation and cellular toxicity in PC12-ND6 cells and embryonic E17.5 hippocampal neurons. (A) Confocal micrographs of PC12-ND6 cells (referred to as ND6) grown in the absence or presence of NaBt for three days and labeled with an anti-acetylated Lys antibody (AcLys; green). Scale bar represents 10 μm. […] Results are expressed as relative fluorescence intensity±S.D. (n=250 cells per NaBt concentration; * p=0.0001). (C) Effect of NaBt on PC12-ND6 cell viability. […] Mean±SEM (n=250 cells for each experimental condition; * p=0.0001). (D) Confocal micrographs of NaBt dose-dependent acetylation in E17.5 hippocampal neurons (AcLys; green). Scale bar represents 10 μm.
Sodium butyrate increases protein acetylation in a dose-dependent manner without inducing cellular toxicity. A dose response analysis was performed to determine the optimal concentration of sodium butyrate (NaBt) for inducing maximal acetylation levels with minimal cellular toxicity. PC12-ND6 cells were treated with different concentrations of NaBt (2 mM, 5 mM, and 10 mM) for three days before assessing the degree of acetylated lysine residues by immunocytochemistry and cell viability by live-cell confocal microscopy using the Nuclear-ID™ stain.

HDAC1-3 enzymes = details: via the HDAC1-3 enzymes; cited from earlier work
neuronal cells [2] = assay: Electron microscopy of mitochondria; format: cell-based; details: NaBt-treated vs control cells
Protocol: (§1) FIG. 9A-9C are graphs and images from microscopy showing that NaBt enhances mitochondrial bioenergetics. (A) Flow cytometric analysis of Δψm; *p<0.001. (B) ATP levels in live cells using a Mg^2+-based assay; *p<0.001. (C) Electron microscopy of mitochondria in control and NaBt-treated cells; scale bar=200 nm.
(§2) NaBt increases mitochondrial membrane potential (Δψm) and ATP levels. The MTR-based data raised the question: could NaBt also enhance mitochondrial bioenergetics? Δψm was assessed by live cell confocal microscopy and flow cytometry using the TMRM dye, which accumulates in the mitochondrial matrix in a Δψm-dependent fashion. A 1.5-fold increase in Δψm in NaBt-treated cells was observed (FIG. 9A). To test whether enhanced Δψm led to increased ATP output, ATP levels were monitored using the live cell Mg^2+-based ATP assay, which is compatible with the TMRM dye, allowing simultaneous recordings. A 1.6-fold increase in ATP levels in NaBt-treated cells was observed (FIG. 9B), in line with the MTR- and TMRM-based findings and the elongated mitochondrial morphology.

neuronal cells [3] = assay: Mitochondrial membrane potential (TMRM dye, confocal microscopy and flow cytometry); format: cell-based; details: NaBt-treated cells
Protocol: as §1, §2

[4] = tested on: E17.5 hippocampal progenitor cells; assay: Neuronal differentiation to stage 3 (β-III tubulin immunostaining); format: cell-based; details: NaBt 2 mM at 1DIV, read at 3DIV, no glial feeder layer; untreated 20%
From the text: FIG. 12A-12B are images from microscopy and a graph showing that NaBt concomitantly increases the mitochondrial biomass of E17.5 hippocampal progenitor cells and their neuronal differentiation. (A) High-resolution tile-stacked confocal micrographs of untreated and NaBt-treated E17.5 hippocampal neurons labeled with β-III tubulin (red) and nuclear counterstain DAPI (blue) at 3DIV with insets showing high magnification of the neuritic network. Scale bar represents 20 μm. (B) Graph of percent of β-III tubulin^+ cells having reached the neuronal stage 3. Mean±S.D. (n=250 cells for each condition; *p=0.0001).
Sodium butyrate-mediated increase in mitochondrial mass correlates with accelerated and enhanced neuronal differentiation of hippocampal progenitor cells. Since broad spectrum HDACis induce neuronal differentiation of adult neural progenitors (reviewed by Lee and Lee, 2010), it was assessed whether increase in mitochondrial mass upon NaBt exposure could accelerate the timing of the neuronal developmental stages of cultured E17.5 hippocampal progenitor cells in the absence of astroglial trophic support. To test this hypothesis, the well-defined chronology of the distinct phenotypic differentiation stages of cultured embryonic hippocampal cells was relied on. […] At 3DIV, cells were immunostained for the pan-neuronal marker β-III tubulin to quantify the percent of cells at stage 3.

CCCC(=O)[O-].[Na+] [NaBt, sodium butyrate]
increase of in vivo mitochondrial mass of E17.5 neurons (E17.5 neurons): 1.6 fold
NaBt concentration resulting in near maximal acetylation levels of nuclear proteins [1]: 2 mM
subset of genes targeted (HDAC1-3 enzymes): 2-5%
mitochondrial micro-architecture (neuronal cells [2]): increased numbers of elongated cristae
increase in Δψm (neuronal cells [3]): 1.5 fold
percent of neurons advanced to stage 3 [4]: 90%
